The results in this text go back to patent publication US12116421B2, “Peptide-based Dopa containing adhesive gels” (KING ABDULLAH UNIVERSITY OF SCIENCE AND TECHNOLOGY, priority 2020, dated 2024).

Data set [1] in a line: AFM topography of peptide nanofibres. Type of data set: physicochemical. The following applies: 13 mM in MilliQ water. Here is the method: In one embodiment, DoIIZK and IIZKDo form nice long and twisted fibers whereas, but IIZDoK peptide performs scarcely even at the concentration of 10 mg/mL. The photos in FIG. 11 has a scalebar of 200 nm, while the photos in FIG. 12 has a scalebar of 400 nm. The peptides shown in FIGS. 11 and 12 are dissolved in MilliQ® water at the concentration of 13 mM. According to the AFM photos in FIGS. 15 and 16 and 3D plot shown in FIG. 11, peptides DoIIZK, IIZDoK and IIZKDo show the following structural properties: • DoIIZK: helical pitch of 24.75±1.46 nm; maximum diametre 1.01±0.14 nm; minimum diametre: 0.66±0.09 nm. • IIZDoK: helical pitch of 8.63±0.49 nm; maximum diametre 1.66±0.19 nm; minimum diametre: 1.16±0.17 nm. • IIZKDo: helical pitch of 24.21±1.24 nm; maximum diametre 3.87±0.28 nm; minimum diametre: 3.09±0.16 nm.
AFM topography measurements were performed on a Dimension Icon SPM (Bruker®). The samples were prepared as follows: peptides were dissolved at 13 mM concentration in MilliQ® water; after 30 minutes, 20 μl of these solutions were dropped on freshly cleaved mica sheets and immediately dried with an N2 stream. Measurements were immediately performed in tapping mode in air by the use of an AFM probe AC_240TS_R3 (Olympus®) with nominal free oscillation at roughly 70 kHz and a nominal spring constant of 2 N/m. The probe was calibrated by contact-free method.^54 Free oscillation amplitude was set at 200 mV with a 5% damping during tapping mode measurement. AFM adhesion measurements were performed on a JPK Nanowizard™ III mounted on Olympus® IX-81 inverted optical microscope. A mica sheet was glued one day before the experiment with double component epoxy glue to a glass slide and enclosed in a plastic o-ring provided by the JPK company for liquid measurements. Each peptide was dissolved in MilliQ® water at a concentration of 13 mM and mixed gently. Starting with the measurement in MilliQ® water, 50 μL of the solution were dropped on the freshly cleaved mica sheet within 5 minutes from the preparation of the solution and let equilibrate for 10 minutes. After, the excess solution was removed by pipetting and discarded. Then 1 mL of MilliQ® water was added gently from the side and after 5 minutes, the sample was rinsed 3 times by additional 1 mL MilliQ® water. Finally, the sample was measured by AFM force spectroscopy (Quantitative imaging mode) with additional 1 mL MilliQ® water. The MilliQ® water was exchanged after the measurement alternatively with a water solution containing 137 mM NaCl or 10 mM Phosphate ions (a combination of Na2HPO4·7H2O and NaH2PO4·H2O to reach pH 7.4). After performing the force spectroscopy map in these two different solutions, eventually, the liquid was exchanged with 1×PBS pH 7.4. To verify the presence of eventual fibers, after the measurement, the excess solution was removed by pipetting and discarded. The sample was then rinsed two times with 1 mL MilliQ® water and dried overnight in a vacuum chamber. The topography AFM imaging was performed using AC-240TS_R3 AFM probes in tapping mode in the JPK AFM.

Data set [2] in a line: Raman spectroscopy of secondary structure of the peptides. The following applies: 1×PBS, 5 mg/mL, integrated area under Raman peak. Type of data set: physicochemical. As to the method:
In one embodiment, the secondary structure of the IIZDoK peptide contains a larger amount of α-helix structure than DoIIZK and IIZKDo peptides that preferentially contain β-turn, as can be appreciated in the Raman spectroscopy signatures of the three peptides.
Raman spectroscopy measurements were performed on DoIIZK, IIZDoK and IIZKDo at 5 mg/mL concentration in 1×PBS buffer or on dry powder samples after deposition on CaF2 slide. Witec Alpha 300 RA confocal Raman spectrometer equipped with Andor CCD camera (DU970N thermoelectrically cooled at −75° C.) was used to perform the Raman measurements in backscattered configuration. The samples were excited through a 50× objective (Zeiss® LD EC Epiplan-Neofluar) with linearly polarized 532 nm wavelength excitation laser. For the analysis, the spectra were cosmic rays removed, baseline subtracted with a polynomial of 5th order, and averaged after normalization to the 1450 cm^−1 peak intensity. Several Voigt functions were fitted setting the peaks at 1653±3, 1663±3 and 1680±3 cm^−1, corresponding to α-helix, β-turn and unordered β-turn respectively, with a FWHM set to a max value of 25 cm^−1. An additional peak at about 1635 cm^−1 was introduced into the fitting to account for contributions from water, lysine and isoleucine Raman shifts.^11

The subject of another data set is Acropora fragments. In words: Coral fragments glued to a tile in sea water, selection of best glue. To be noted: for survival rate of the coral fragments: after 3 days, tile in aquarium with running seawater; for time to detachment of glued fragments under water: DoIIZK: one of the fragments, IIZDoK: all fragments; for Survival after 3 days in the aquarium / Survival after attachment: number of Acropora fragments of n = 3. Type of data set: in vivo, Acropora spp. Here is the method: In one embodiment, coral fragments were attached to a tile using DoIIZK, IIZDoK, IIZKDo as a glue. The tile, to which the coral fragments were attached, has a size 10×10 cm and was placed into a shallow aquarium supplied with running seawater.
In one embodiment, the survival rate of the coral fragments fixed with DoIIZK was 67%, whereas the survival rate glued with IIZDoK and IIZKDo were respectively 0% and 100%, after 3 days.
The different glues were prepared at the same concentration of 40 mg/mL for DoIIZK, IIZDoK and IIZKDo. Then, the coral fragments were adhered to the surface of the tiles by applying gentle pressure as following: triplicates in the first line with DoIIZK as a glue, second line with IIZDoK and last line with IIZKDo. The experiment setup is illustrated in FIG. 40. The tiles were afterwards placed underwater in a tank containing filtered sea water. One of the fragments that was glued with DoIIZK detached less than 15 minutes after we placed the tile under water and all of the fragments that were glued with IIZDoK detached around 30 minutes after they have been placed under water.

The nature of data set [3]: Peptide gelation study by vial inversion test (CGC and gelation time). Type of data set: physicochemical. To be noted: 1×PBS; for gelation time: vial inversion test. As to the method: The critical gelation concentration (CGC) and gelation time of hydrogels formed by the catechol peptides in 1×PBS determined by vial inversion test are summarized below:
The peptide powder was dissolved in 0.90 mL of MilliQ® water and vortexed until fully dissolved. Then, 0.10 mL of 10×PBS buffer were added to the peptide solution to reach a final concentration of 1×PBS. Gelation of the solution in the vial was observed by vial inversion method. The time and critical gelation concentration (CGC) at which each peptide formed a hydrogel were recorded.

Setting [4] is: glue 40 mg/mL, tile in filtered sea water.

Where a SMILES comes first, the peptide text is derived from it. [ ]: non-standard residue; d: D form. Dopa = N[C@@H](Cc1ccc(O)c(O)c1)C(=O)O; Cha = N[C@@H](CC1CCCCC1)C(=O)O

For the molecule `CC[C@H](C)[C@H](NC(=O)[C@H](Cc1ccc(O)c(O)c1)NC(C)=O)C(=O)N[C@H](C(=O)N[C@@H](CC1CCCCC1)C(=O)N[C@@H](CCCCN)C(N)=O)[C@@H](C)CC` [DoIIZK, Ac-Dopa-Ile-Ile-Cha-Lys-NH2] (Ac-[Dopa]II[Cha]K-NH2), in data set [1], the helical pitch is 24.75±1.46 nm, the maximum diametre is reported as 1.01±0.14 nm and the minimum diametre is listed as 0.66±0.09 nm. For the same molecule, in data set [2], the “Disordered structure Area %” value is recorded as 1687; 22%, the “α-helix Area %” value is reported as 1650; 13% and the “β-turn Area %” value is on record as 1665; 65%. In addition, in the data set with Acropora fragments, the “survival rate of the coral fragments” value came out at 67%, the “Survival after 3 days in the aquarium” value came out at 2 and the Survival after attachment turned out to be 3. Moreover, in the data set on Acropora fragments (setting [4]), the “time to detachment of glued fragments under water” value is reported as “less than 15 minutes”. In addition, the “critical gelation concentration (CGC)” value in data set [3] worked out at 2 mg/mL. In addition, in data set [3] (peptide 1 mg/mL), the gelation time entry is given as “Not gelating”. The same molecule gave a gelation time in data set [3] (peptide 2 mg/mL) of 45 min. Moreover, in data set [3] (peptide 2 mg/mL, listed as DopaIIZK), the gelation time is given as above 45 min. Besides, the gelation time in data set [3] (peptide 3 mg/mL) was above 30 min. The gelation time in data set [3] (peptide 4 mg/mL) is above 20 min. In data set [3] (peptide 5 mg/mL), this molecule displayed a gelation time above 10 min.

Take `CC[C@H](C)[C@H](NC(C)=O)C(=O)N[C@H](C(=O)N[C@@H](CC1CCCCC1)C(=O)N[C@@H](Cc1ccc(O)c(O)c1)C(=O)N[C@@H](CCCCN)C(N)=O)[C@@H](C)CC` [IIZDoK, Ac-Ile-Ile-Cha-Dopa-Lys-NH2] (Ac-II[Cha][Dopa]K-NH2): in data set [1], the helical pitch worked out at 8.63±0.49 nm, the maximum diametre is 1.66±0.19 nm and the minimum diametre was 1.16±0.17 nm. Besides, in data set [2], the “Disordered structure Area %” value is recorded as 1690; 16%, the “α-helix Area %” value is listed as 1656; 40% and the “β-turn Area %” value is reported as 1666; 44%. Also, in the data set with Acropora fragments, the “survival rate of the coral fragments” value amounted to 0%, the “Survival after 3 days in the aquarium” value worked out at 0 and the Survival after attachment was found to be 3. The “time to detachment of glued fragments under water” value with Acropora fragments (setting [4]) was “around 30 minutes”. Moreover, the “critical gelation concentration (CGC)” value in data set [3] is 4 mg/mL. In data set [3] (peptide 1 mg/mL), the gelation time result is reported as “Not gelating”. Moreover, the gelation time entry in data set [3] (peptide 2 mg/mL) was “Not gelating”. Besides, the gelation time result in data set [3] (peptide 3 mg/mL) is recorded as “Not gelating”. In data set [3] (peptide 4 mg/mL), this molecule showed a gelation time of 80 min. Moreover, the gelation time in data set [3] (peptide 4 mg/mL, listed as IIZDopaK) is above 80 min. Besides, in data set [3] (peptide 5 mg/mL), the gelation time was above 75 min.

With `CC[C@H](C)[C@H](NC(C)=O)C(=O)N[C@H](C(=O)N[C@@H](CC1CCCCC1)C(=O)N[C@@H](CCCCN)C(=O)N[C@@H](Cc1ccc(O)c(O)c1)C(N)=O)[C@@H](C)CC` [IIZKDo, Ac-Ile-Ile-Cha-Lys-Dopa-NH2] (Ac-II[Cha]K[Dopa]-NH2), in data set [1], the helical pitch was found to be 24.21±1.24 nm, the maximum diametre was found to be 3.87±0.28 nm and the minimum diametre came out at 3.09±0.16 nm. Moreover, in data set [2], the “Disordered structure Area %” value is 1690; 18%, the “α-helix Area %” value is on record as 1658; 18% and the “β-turn Area %” value was 1666; 64%. Also, in the data set with Acropora fragments, the “survival rate of the coral fragments” value was 100%, the “Survival after 3 days in the aquarium” value is reported as 3 and the Survival after attachment was 3. In the data set on Acropora fragments (glue 40 mg/mL, tile in filtered sea water, triplicates), the “fragments sticking to the tile after 17 days” value is reported as “still all sticking to the tile after 17 days”. Also, the “critical gelation concentration (CGC)” value in data set [3] was determined as 3 mg/mL. In data set [3] (peptide 1 mg/mL), the gelation time entry is on record as “Not gelating”. In addition, the gelation time result in data set [3] (peptide 2 mg/mL) is given as “Not gelating”. Further, in data set [3] (peptide 3 mg/mL), the gelation time stood at 30 min. Moreover, in data set [3] (peptide 3 mg/mL, listed as IIZKDopa), the gelation time is above 30 min. In data set [3] (peptide 4 mg/mL), this molecule registered a gelation time above 21 min. Besides, the gelation time in data set [3] (peptide 5 mg/mL) is above 16 min.
